We go through 1 sequence from US12011475B2, “Polypeptide, polypeptide fragment, derivative thereof, and applications thereof” (CHENGDU HUITAI BIOMEDICINE CO., LTD., priority 2017, dated 2024).

Common to all, as to type: in vivo
Experiment [1] relates to rat with pulmonary fibrosis induced by bleomycin. Kind of experiment: Lung coefficient, intratracheal instillation (Example 17). Conditions: lung mass (mg)/body weight (g), 8 mg/kg peptide + 4 mg/kg bleomycin, Mean ± SEM. As to the method:
(§1) The rats in Example 2 were weighed and sacrificed by anesthesia overdose. Lung tissue of both sides of the rats was taken, and the connective tissue around the lung tissue was carefully removed. After washing with saline and dried with a filter paper, the wet weight of the whole lung was weighted by an electronic balance. After the wet weight of the whole lung was weighted by the electronic balance, the lung coefficient was calculated according to the formula, lung coefficient=lung mass (mg)/body weight (g) (the result is shown in FIG. 1).
The rats in model group were intratracheally instilled with bleomycin (4 mg/kg); after anesthesia, the rats in treatment groups were intratracheally instilled with bleomycin (4 mg/kg) and corresponding therapeutic drug (8 mg/kg) simultaneously. The remaining implementation steps were the same as the description of Example 9.
The experimental rats of the control group, the model group and the treatment groups of Example 15 were taken to determine the lung coefficient. The implementation steps were the same as the description of Example 2.

Experiment [2] shares this test system. Kind of experiment: HE staining score, intravenous injection (Example 23). Conditions: inflammatory pathology score, grade 0 to 3; intravenous injection 10 mg/kg once a day, 4th to 13th day after bleomycin 4 mg/kg; Mean ± SEM. The source says: The lung tissue of the rats of Example 2 was taken, fixed with 4% paraformaldehyde and embedded in paraffin. The wax block embedded the lung tissue was sectioned along the largest cross section. Pathological changes in lung tissue were observed using hematoxylin-eosin (HE) staining. Pathological changes in lung tissue were observed under a light microscope (low magnification) at a magnification of 100 times (the result is shown in FIG. 2).
According to the method provided by Szapie, et al., the degree of alveolitis was graded according to the range of lesions and could be divided into 0 to 3 grades, corresponding to 0 to 3 points. The evaluation indexes for the degree of alveolitis are as follows: grade 0, no alveolitis; grade 1, mild alveolitis, manifested as a slight increase in alveolar septum, infiltration of monocytes, near the pleura or localized, with a lesion range of less than 20% without alveolar structural damage; grade 2, moderate alveolitis, the lesion ranges from 20% to 50%, relatively severe near the pleura; grade 3, severe alveolitis, diffusely distributed, the lesion range is more than 50%, with pulmonary parenchymal lesion occasionally.
The rats were weighed before administration, intramuscularly injected with 65 mg/kg Zoletil anesthetic solution. After the rats entered the stage III anesthesia, the experimental rats were fixated in the lateral decubitus. […]

Experiment [3] has the same test system. The experiment can be described thus: Masson staining score, intravenous injection (Example 24). Conditions: fibrosis pathology score, grade 0 to 8; intravenous injection 10 mg/kg once a day, 4th to 13th day after bleomycin 4 mg/kg; Mean ± SEM. From the text:
The lung tissue of the rats of Example 9 was taken, fixed with 4% paraformaldehyde and embedded in paraffin. The wax block embedded the lung tissue was sectioned along the largest cross section. Pathological changes in lung tissue were observed using staining by Masson's trichrome stain (Masson). Pathological changes in lung tissue were observed under a light microscope (low magnification) at a magnification of 100 times (the result is shown in FIG. 15).
According to the Modified Ashcroft scale scoring method, the degree of pulmonary fibrosis was evaluated according to the range of lesions and could be divided into 0 to 8 grades.
(§2) The rats were weighed before administration, intramuscularly injected with 65 mg/kg Zoletil anesthetic solution. After the rats entered the stage III anesthesia, the experimental rats were fixated in the lateral decubitus. Gavage needle size 12 was inserted into rat trachea through oral cavity along the glottis to instill sterile saline or bleomycin (4 mg/kg) (Day 0). After the anesthesia, the rats in control group were intratracheally instilled with an equal volume of sterile saline, and the rats in model group and treatment groups were intratracheally instilled with bleomycin (4 mg/kg). On the 4th day, the sterile saline or peptide drug was injected through the tail vein once a day until the 13th day. […]

Experiment [4] has the same test system. The experiment can be described thus: Lung coefficient, intravenous injection (Example 22). Conditions: lung mass (mg)/body weight (g); intravenous injection 10 mg/kg once a day, 4th to 13th day after bleomycin 4 mg/kg; Mean ± SEM. As to the method: as §1
The rats were weighed before administration, intramuscularly injected with 65 mg/kg Zoletil anesthetic solution. After the rats entered the stage III anesthesia, the experimental rats were fixated in the lateral decubitus. Gavage needle size 12 was inserted into rat trachea through oral cavity along the glottis to instill sterile saline or bleomycin (4 mg/kg) (Day 0). After the anesthesia, the rats in control group were intratracheally instilled with an equal volume of sterile saline, and the rats in model group and treatment groups were intratracheally instilled with bleomycin (4 mg/kg). […]
The experimental rats of the control group, the model group and the treatment groups of Example 20 were taken, the lung weight was measured and the lung coefficient was calculated. […]

Experiment [5] relates to tgf-β. Kind of experiment: mRNA content of tgf-β in rat lung tissue by qPCR (Example 26). Conditions: 18S RNA internal reference; intravenous injection 10 mg/kg once a day, 4th to 13th day after bleomycin 4 mg/kg; Mean ± SEM. As to the method: as §2, with “day. The rats were sacrificed on the 14th day for subsequent experiments.” for “day.”
The rat lung tissue in the control group, the model group and the treatment groups of Example 20 was taken. […] After obtaining cDNA using reverse transcription, fluorescence quantitative PCR (qPCR) kit (Applied Biosystems, Cat. No. 4319413E) was used to detect the mRNA content of tgf-β (forward primer: GAGGTGACCTGGGCACCAT, reverse primer: GGCCATGAGGAGCAGGAA), 18S RNA was used as an internal reference, and the result is shown in the tgf-β values in Table 4.
Background: Real-time PCR tracks product formation cycle by cycle.

Ends that are not written are not given here.

YRVRFLAKENVTQDAEDN [N1]: the figures for the “Lung Coefficient” value in experiment [1] and in experiment [4] were 8.49 ± 0.09 and 9.25 ± 0.28, respectively. The “HE Score” value in experiment [2] is 2.44 ± 0.24. In addition, the “Masson Score” value in experiment [3] stood at 3.85 ± 0.11. The “tgf-β (mRNA content of tgf-β in lung tissue)” value in experiment [5] is listed as 2.50 ± 0.04.
